Measured values taken from patent US20090029992A1, “SUBSTITUTED PYRAZOLE COMPOUNDS” (priority 2007, published 2009).

Legend:
[1] = target: T1, N-terminal His-tagged human Src (Homo sapiens, UniProt P12931); assay: Src kinase inhibition assay (33P-ATP filter assay); assay type: biochemical
T1 construct: His (N); purchased Upstate USA Inc, 706 Forest Street, Charlottesville, Va
Method: (§1) Compounds were assayed for Src kinase inhibitory activity using N-terminal His-tagged human Src (Upstate USA Inc, 706 Forest Street, Charlottesville, Va.). Serial dilutions of compound were assayed in a final reaction volume of 25 μL by incubating a solution of the above Src kinase (5-10 mU), 8 mM MOPS (3-(N-morpholino) propanesulfonic acid) pH 7.0, 0.2 mM EDTA (ethylenediamine tetracetic acid), 250 μM amino acid sequence KVEKIGEGTYGVVYK (Upstate USA Inc, 706 Forest Street, Charlottesville, Va.), and 10 mM magnesium acetate and [γ-^33P-ATP] (specific activity of about 500 cpm/μmol, concentration as required). The reaction was initiated by the addition of the magnesium acetate and [γ-^33P-ATP] mixture. After incubation for 40 minutes at room temperature, the reaction was stopped by the addition of 5 μL of a 3% phosphoric acid solution. A 10 μL aliquote of the reaction was then spotted onto a P30 filtermat (PerkinElmer, Wellesley, Mass.) and washed three times for five minutes in 75 mM phosphoric acid and once in methanol prior to drying and scintillation counting. Inhibition of Src activity was determined by comparison to assays that contained no inhibitor.

HCT116 cells = assay: Whole cell cytotoxicity assay, Sulforhodamine B; assay type: cell-based; settings: Homo sapiens, HCT-116, HCT116, 96 hours incubation, SRB; for IC50: read-out: IC50 values in this assay (HCT116 cell growth); for GI50: read-out: GI50 HCT116 cell growth
Method: Human tumor-derived cell lines, HCT116 or MCF7 (ATCC) were plated in a 96 well plate in DMEM containing 10% fetal bovine serum and 2 mM L-glutamine at a density of 500 HCT116 cells or 1,000 MCF7 cells per well and incubated at 37° C., 5% CO2, for 24 hours prior to the addition of experimental compounds. Compounds were added using the dilution series indicated to duplicate plates and the cells were incubated in media plus compound for 96 hours. An additional plate was fixed in 10% TCA at the time of the addition of compound to provide a measurement of the cell population at time zero, the time of drug addition. Following the 96 hour incubation, cells were fixed in situ by gently aspirating off the culture media and then adding 50 ul of ice cold 10% TCA per well and incubation at 4° C. for 60 minutes. The plates were washed with tap water five times and allowed to air dry for 5 minute. 50 ul of a 0.4% (w/v) Sulforhodamine B solution in 1% (v/v) acetic acid was added per well and the cells were incubated for 30 minutes at room temperature. Following staining, plates were washed four times with 1% acetic acid to remove any unbound dye and then allowed to air dry for 5 minutes. The stain was solubilized with 100 ul of 10 mM Tris pH 10.5 per well and placed on an orbital rotator for 5 minutes. The absorbance was read at 570 nm. Percentage growth was calculated using the absorbance readings from the time zero plate (Tz) and the dilution series plate […] which included a column of cells grown in media without compound as a control (C) using the formulas:
[(Ti−Tz)/(C−Tz)]×100 for concentrations for which Ti>/=Tz
[(Ti−Tz)/Tz]×100 for concentrations for which Ti<Tz.
Three dose response parameters were calculated for each experimental agent. Growth inhibition of 50% (GI50) was calculated from [(Ti−Tz)/(C−Tz)]×100=50, which was the drug concentration resulting in a 50% reduction in the net protein increase (as measured by SRB staining) in control cells during the drug incubation. The drug concentration resulting in total growth inhibition (TGI) was calculated from Ti=Tz. The LC50 (concentration of drug resulting in a 50% reduction in the measured protein at the end of the drug treatment as compared to that at the beginning) indicating a net loss of cells following treatment ws calculated from [(Ti−Tz)/Tz]×100=−50. Values are calculated for each of these three parameters if the level of activity was reached; however, if the effect was not reached or was exceeded, the value for that parameter is expressed as greater or less than the maximum or minimum concentration tested.

[2] = target: T2, N-terminal His6-tagged recombinant human KDR, residues 790-end (Homo sapiens, UniProt P35968); assay: KDR kinase inhibition assay (33P-ATP filter assay); assay type: biochemical
T2 construct: recombinant human KDR, residues 790-end; His6 (N); purchased Upstate USA Inc, 706 Forest Street, Charlottesville, Va
Method: as §1, with “for KDR” for “for Src”, “N-terminal His6-tagged recombinant” for “N-terminal His-tagged”, “human KDR, residues 790-end” for “human Src”, “above KDR” for “above Src”, “acid), 0.33 mg/mL myelin basic protein” for “acid), 250 μM amino acid sequence KVEKIGEGTYGVVYK”, “of KDR” for “of Src”

[3] = target: T3, N-terminal GST-tagged recombinant human Flt3, residues 564-end (Homo sapiens, UniProt P36888); assay: Flt3 kinase inhibition assay (33P-ATP filter assay); assay type: biochemical
T3 construct: recombinant human Flt3, residues 564-end; GST (N); purchased Upstate USA Inc, 706 Forest Street, Charlottesville, Va
T3 sequence (P36888 564-993 limits assumed): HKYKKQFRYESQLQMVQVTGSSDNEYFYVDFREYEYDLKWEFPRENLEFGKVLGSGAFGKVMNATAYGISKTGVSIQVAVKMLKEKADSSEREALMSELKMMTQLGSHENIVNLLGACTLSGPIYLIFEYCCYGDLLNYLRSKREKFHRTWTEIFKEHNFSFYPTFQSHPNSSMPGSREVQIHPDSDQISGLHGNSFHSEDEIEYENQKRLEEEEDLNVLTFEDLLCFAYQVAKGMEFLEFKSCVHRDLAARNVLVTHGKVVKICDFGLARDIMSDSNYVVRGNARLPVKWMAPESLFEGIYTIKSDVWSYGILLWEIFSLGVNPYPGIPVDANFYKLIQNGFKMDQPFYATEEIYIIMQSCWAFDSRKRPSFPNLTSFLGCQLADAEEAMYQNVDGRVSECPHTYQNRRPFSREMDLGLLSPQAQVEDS
Method: Compounds were assayed for Flt3 kinase inhibitory activity using N-terminal GST-tagged recombinant human Flt3, residues 564-end (Upstate USA Inc, 706 Forest Street, Charlottesville, Va.). Serial dilutions of compound were assayed in a final reaction volume of 25 μL by incubating a solution of the above Flt3 kinase (5-10 mU), 8 mM MOPS (3-(N-morpholino) propanesulfonic acid) pH 7.0, 0.2 mM EDTA (ethylenediamine tetracetic acid), 50 μM amino acid sequence EAIYAAPFAKKK (Upstate USA Inc, 706 Forest Street, Charlottesville, Va.), and 10 mM magnesium acetate and [γ-^33P-ATP] (specific activity of about 500 cpm/μmol, concentration as required). The reaction was initiated by the addition of the magnesium acetate and [γ-^33P-ATP] mixture. After incubation for 40 minutes at room temperature, the reaction was stopped by the addition of 5 μL of a 3% phosphoric acid solution. A 10 μL aliquote of the reaction was then spotted onto a P30 filtermat (PerkinElmer, Wellesley, Mass.) and washed three times for five minutes in 75 mM phosphoric acid and once in methanol prior to drying and scintillation counting. Inhibition of Flt3 activity was determined by comparison to assays that contained no inhibitor.

[4] = group with IC50 greater than 100 nM

T2 sequence (P35968 790-1356 limits assumed): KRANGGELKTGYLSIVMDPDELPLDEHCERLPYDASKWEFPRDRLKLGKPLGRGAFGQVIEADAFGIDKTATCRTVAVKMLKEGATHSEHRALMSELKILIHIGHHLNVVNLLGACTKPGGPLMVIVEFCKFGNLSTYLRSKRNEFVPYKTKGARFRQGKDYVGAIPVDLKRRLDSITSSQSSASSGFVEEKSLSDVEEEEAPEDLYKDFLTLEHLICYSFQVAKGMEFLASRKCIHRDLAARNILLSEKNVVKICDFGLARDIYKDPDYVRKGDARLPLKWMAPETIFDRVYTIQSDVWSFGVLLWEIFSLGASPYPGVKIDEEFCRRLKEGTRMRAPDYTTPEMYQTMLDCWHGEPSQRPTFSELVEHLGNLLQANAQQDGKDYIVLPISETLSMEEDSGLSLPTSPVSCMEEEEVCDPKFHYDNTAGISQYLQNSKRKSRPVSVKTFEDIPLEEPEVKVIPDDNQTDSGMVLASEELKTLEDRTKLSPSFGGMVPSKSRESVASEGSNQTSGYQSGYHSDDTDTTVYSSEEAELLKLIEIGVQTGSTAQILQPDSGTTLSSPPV
T1 sequence (P12931 whole entry): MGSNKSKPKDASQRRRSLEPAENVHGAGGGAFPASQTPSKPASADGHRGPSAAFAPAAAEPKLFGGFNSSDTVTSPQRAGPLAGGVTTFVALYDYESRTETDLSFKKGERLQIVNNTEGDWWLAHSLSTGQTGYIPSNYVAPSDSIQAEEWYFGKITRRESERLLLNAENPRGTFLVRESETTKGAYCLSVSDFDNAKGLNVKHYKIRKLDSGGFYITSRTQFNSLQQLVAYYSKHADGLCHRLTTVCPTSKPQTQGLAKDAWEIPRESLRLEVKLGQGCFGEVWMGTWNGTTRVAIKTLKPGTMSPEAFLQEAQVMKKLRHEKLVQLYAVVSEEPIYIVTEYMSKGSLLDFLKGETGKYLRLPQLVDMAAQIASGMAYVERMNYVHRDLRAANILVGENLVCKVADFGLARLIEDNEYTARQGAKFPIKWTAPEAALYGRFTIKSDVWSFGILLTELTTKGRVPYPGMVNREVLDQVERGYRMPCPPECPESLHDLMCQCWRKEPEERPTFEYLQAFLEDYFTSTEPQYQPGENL

Row | IC50 ([3]; 40 minutes at room temperature) | IC50 [2, 4] | Structure (SMILES) | IC50 (HCT116 cells) | further results
1 | ≤ 100 nM | ≤ 1000 nM | Cc1ccc(C)c(-c2nc(Nc3cc(C)[nH]n3)cc(N(C)CCN(C)C)n2)c1 [Example 207, N^4-(2-(dimethylamino)ethyl)-2-(2,5-dimethylphenyl)-N^4-methyl-N^6-(5-methyl-1H-pyrazol-3-yl)pyrimidine-4,6-diamine] | – | –
2 | – | ≤ 1000 nM | COCCN(C)c1cc(Nc2cc(C)[nH]n2)nc(-c2ccccc2OC)n1 [Compound 69, N^4-(2-methoxyethyl)-2-(2-methoxyphenyl)-N^4-methyl-N^6-(5-methyl-1H-pyrazol-3-yl)pyrimidine-4,6-diamine] | 1000 to 10000 nM | IC50 [3, 4]: ≤ 1000 nM
3 | ≤ 100 nM | – | COCCN(C)c1cc(Nc2cc(C)[nH]n2)nc(-c2ccc(C(C)(C)C)cc2)n1 [Compound 115, 2-(4-tert-butylphenyl)-N^4-(2-methoxyethyl)-N^4-methyl-N^6-(5-methyl-1H-pyrazol-3-yl)pyrimidine-4,6-diamine] | 1000 to 10000 nM | IC50 [1, 4]: ≤ 1000 nM
4 | ≤ 100 nM | ≤ 1000 nM | COc1ccccc1-c1nc(Nc2cc(C)[nH]n2)cc(N(C)CCN(C)C)n1 [Compound 56, N^4-(2-(dimethylamino)ethyl)-2-(2-methoxyphenyl)-N^4-methyl-N^6-(5-methyl-1H-pyrazol-3-yl)pyrimidine-4,6-diamine] | – | GI50 (HCT116 cells): ≤ 1000 nM
5 | ≤ 100 nM | ≤ 1000 nM | CCc1ccccc1-c1nc(Nc2cc(C)[nH]n2)cc(N(C)CCOC)n1 [Example 187, 2-(2-ethylphenyl)-N^4-(2-methoxyethyl)-N^4-methyl-N^6-(5-methyl-1H-pyrazol-3-yl)pyrimidine-4,6-diamine] | – | IC50 ([1]; 40 minutes at room temperature): ≤ 100 nM

The remaining lines, values behind:

Row | Structure (SMILES) | IC50 ([3]; 40 minutes at room temperature) | IC50 [2, 4] | IC50 (HCT116 cells) | further results
6 | Cc1cccc(-c2nc(Nc3cc(C)[nH]n3)cc(NC3CCOCC3)n2)c1 [Compound 26, N^4-(5-methyl-1H-pyrazol-3-yl)-N^6-(tetrahydro-2H-pyran-4-yl)-2-m-tolylpyrimidine-4,6-diamine] | – | – | 1000 to 10000 nM | IC50 [1, 4]: ≤ 1000 nM; IC50 ([2]; 40 minutes at room temperature): ≤ 100 nM
7 | Cc1cc(Nc2cc(N(C)CCN(C)C)nc(-c3cccc4c3OCCO4)n2)n[nH]1 [Example 143, 2-(2,3-dihydrobenzo[b][1,4]dioxin-5-yl)-N^4-(2-(dimethylamino)ethyl)-N^4-methyl-N^6-(5-methyl-1H-pyrazol-3-yl)pyrimidine-4,6-diamine] | ≤ 100 nM | ≤ 1000 nM | 1000 to 10000 nM | –
8 | CCc1ccccc1-c1nc(Nc2cc(C)[nH]n2)cc(N(C)CCN(C)C)n1 [Example 186, N^4-(2-(dimethylamino)ethyl)-2-(2-ethylphenyl)-N^4-methyl-N^6-(5-methyl-1H-pyrazol-3-yl)pyrimidine-4,6-diamine] | ≤ 100 nM | ≤ 1000 nM | 1000 to 10000 nM | IC50 [1, 4]: ≤ 1000 nM
9 | Cc1cc(Nc2cc(N(C)CCN(C)C)nc(-c3c(C)cccc3C)n2)n[nH]1 [Example 195, N^4-(2-(dimethylamino)ethyl)-2-(2,6-dimethylphenyl)-N^4-methyl-N^6-(5-methyl-1H-pyrazol-3-yl)pyrimidine-4,6-diamine] | – | – | – | IC50 [3, 4]: ≤ 1000 nM
10 | Cc1cc(Nc2cc(N3CCN(C)CC3)nc(-c3cc(C(F)(F)F)cc(C(F)(F)F)c3)n2)n[nH]1 [Example 173, 2-(3,5-bis(trifluoromethyl)phenyl)-N-(5-methyl-1H-pyrazol-3-yl)-6-(4-methylpiperazin-1-yl)pyrimidin-4-amine] | ≤ 100 nM | – | – | GI50 (HCT116 cells): ≤ 1000 nM
11 | COCCN(C)c1cc(Nc2cc(C)[nH]n2)nc(-c2cc(C)ccc2C)n1 [Example 202, 2-(2,5-dimethylphenyl)-N^4-(2-methoxyethyl)-N^4-methyl-N^6-(5-methyl-1H-pyrazol-3-yl)pyrimidine-4,6-diamine] | ≤ 100 nM | – | 1000 to 10000 nM | –
12 | Cc1cc(Nc2cc(NC3CCOCC3)nc(-c3c(C)cccc3C)n2)n[nH]1 [Example 199, 2-(2,6-dimethylphenyl)-N^4-(5-methyl-1H-pyrazol-3-yl)-N^6-(tetrahydro-2H-pyran-4-yl)pyrimidine-4,6-diamine] | – | – | – | IC50 [3, 4]: ≤ 1000 nM
13 | Cc1cc(Nc2cc(N3CCN(C)CC3)nc(-c3c(C)cccc3C)n2)n[nH]1 [Example 194, 2-(2,6-dimethylphenyl)-N-(5-methyl-1H-pyrazol-3-yl)-6-(4-methylpiperazin-1-yl)pyrimidin-4-amine] | – | – | – | IC50 [3, 4]: ≤ 1000 nM
14 | COc1ccccc1-c1nc(Nc2cc(C)[nH]n2)cc(NC2CCOCC2)n1 [Compound 30, 2-(2-methoxyphenyl)-N^4-(5-methyl-1H-pyrazol-3-yl)-N^6-(tetrahydro-2H-pyran-4-yl)pyrimidine-4,6-diamine] | – | ≤ 1000 nM | – | –
15 | Cc1cc(Nc2cc(N3CCN(C)CC3)nc(-c3ccc(S(C)(=O)=O)cc3)n2)n[nH]1 [Compound 95, N-(5-methyl-1H-pyrazol-3-yl)-6-(4-methylpiperazin-1-yl)-2-(4-(methylsulfonyl)phenyl)pyrimidin-4-amine] | – | – | – | GI50 (HCT116 cells): ≤ 1000 nM
